# Columns and labels:
# PKLNluc = PKLNluc (Homo sapiens, UniProt P30613); experiment: NanoBRET with recombinant PKLNluc; settings: tracer IV 100 nM, 450/550 nm, ± mitapivat
# Experimental: Due to the low quantum yield of SBD‐containing IV (Table S1), we optimized the plate reader settings for the NanoBRET assay to maximize the signal‐to‐background (S/B) ratio. The fluorescence excitation spectrum of tracer IV overlapped with the emission band of PKLNluc (Figure 5a), prompting the screening of wavelength pairs within 400–600 nm.
# The donor/acceptor wavelength pairs were recorded at 450/470 nm, 550/510 nm, 450/530 nm, 450/550 nm, 450/610 nm, 450/630 nm and 400/470 nm respectively. For each sample well, BRET ratios were calculated using the following formula:
# BRET ratio mBU= AcceptorSDonorS-AcceptorNTDonorNT
# Where AcceptorS is the luminescence intensity (FI) of the sample well at 550 nm, DonorS is the FI of the sample well at 450 nm, and AcceptorNT and DonorNT are the FI of the no-tracer control at 550 nm and 450 nm respectively.
# PKM2 = PKM2 (Homo sapiens, UniProt P14618); experiment: Native PAGE in-gel fluorescence, PKM2; type: binding; design: made in house
# Experimental: To study the interaction of IV with PKLNluc and its oligomers, native PAGE was performed (Figure 4). Recombinant PKLNluc was incubated for 2 h with IV (0.15–10 µM) or DMSO and loaded onto gels. […] Colloidal blue staining and western blotting with anti‐PKL antibodies confirmed the predominance and identity of the bands (Figure S11a,d). […] PKM2 and PKL exist in equilibrium between oligomeric states, with PKM2 mainly dimeric when unbound.^[ [18] ^] As oligomerization regulates PK function,^[ [11], [54] ^] PKLNluc oligomerization was compared to PKLwt and PKM2 (Figure 4b,c). […] Colloidal blue and anti‐PKM2 blots confirmed PKM2 was mostly monomeric, explaining the lack of binding (Figure S11).
# Given that FBP levels vary widely in cells,^[ [55], [56], [57] ^] and that it binds PKL with nanomolar affinity, ^[ [58] ^] IV binding to PKLwt was tested with and without FBP.
# Recombinant PKLNLuc (4 x 950 ng) was incubated for 1 hour at ambient temperature with different concentrations of compound IV in a total volume of 60 µL Tris-HCl buffer pH 7.4 (50 mM Tris, 100 mM KCl, 10 mM MgCl2, 0.05% Tween 20). […]
# A ChemiDoc imager (Bio-Rad, Alexa 488 filter) was used for fluorescence detection of compound IV bound to the proteins. […] The images of the in-gel fluorescence and luminescence detection were superimposed. […]
# PKL = PKL (Homo sapiens, UniProt P30613); experiment: Recombinant PKL activity assay (Kinase-Glo MAX); type: biochemical; design: co-crystallisation of full-length PKL (including the B-domain); 8xHis (TEV-cleavable) (N, cleaved yes); made in house; host or cells: E. coli T7 Express (NEB), pExp-NHis plasmid
# Sequence of PKL (P30613 1-543 isoform P30613-2): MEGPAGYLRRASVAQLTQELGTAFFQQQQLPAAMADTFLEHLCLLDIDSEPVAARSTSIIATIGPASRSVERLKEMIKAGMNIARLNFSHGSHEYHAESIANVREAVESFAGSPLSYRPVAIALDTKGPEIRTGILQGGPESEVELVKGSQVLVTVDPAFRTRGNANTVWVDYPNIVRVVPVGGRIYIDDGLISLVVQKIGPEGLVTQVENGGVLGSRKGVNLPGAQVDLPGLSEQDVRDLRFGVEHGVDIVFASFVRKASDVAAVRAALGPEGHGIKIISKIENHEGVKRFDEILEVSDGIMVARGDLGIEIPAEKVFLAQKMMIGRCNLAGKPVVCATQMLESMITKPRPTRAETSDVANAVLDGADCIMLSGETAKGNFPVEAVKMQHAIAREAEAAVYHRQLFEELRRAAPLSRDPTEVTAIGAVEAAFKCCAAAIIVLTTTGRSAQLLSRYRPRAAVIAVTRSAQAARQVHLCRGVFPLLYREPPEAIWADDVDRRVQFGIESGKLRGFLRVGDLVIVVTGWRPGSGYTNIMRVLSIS
# Experimental: The two isozymes were incubated with increasing concentrations of compounds before the addition of substrates PEP and adenosine diphosphate (ADP), and the reactions were monitored using a Kinase‐Glo MAX assay.
# Figure S2. […] The reactions were terminated by the addition of Kinase Glo-MAX reagent after 10 min, and the luminescence from each reaction was quantified using a plate reader. The activity values are expressed as a percentage of PK activity of the DMSO control. The potencies were calculated by best fit of the Hill equation to the luminescence data.^[2] (A) PKL titrations. (B) PKM2 titrations. Error bars represent the ±SE of replicates (n = 3).
# The reaction mixture contained 0.2 mM ADP, 0.1 mM PEP, 5 nM PKL, 1% DMSO, and test compounds at concentrations ranging from 0 to 1 mM across 12 titration points. Prior to substrate addition, PKL and test compounds were pre-incubated for 15 minutes.
# After the reaction, 5 µL of Kinase-Glo Max reagent was added to each well. […] For each data set, luminescence from the DMSO control was set as 100% activity, and luminescence from the protein blank (no PKL) as 0% activity. Percentage activity (E%) was calculated using the equation: […]
# Titration data was fitted to the Hill equation in Origin to determine EC₅₀ values.
# Sequence of PKM2 (P14618 whole entry): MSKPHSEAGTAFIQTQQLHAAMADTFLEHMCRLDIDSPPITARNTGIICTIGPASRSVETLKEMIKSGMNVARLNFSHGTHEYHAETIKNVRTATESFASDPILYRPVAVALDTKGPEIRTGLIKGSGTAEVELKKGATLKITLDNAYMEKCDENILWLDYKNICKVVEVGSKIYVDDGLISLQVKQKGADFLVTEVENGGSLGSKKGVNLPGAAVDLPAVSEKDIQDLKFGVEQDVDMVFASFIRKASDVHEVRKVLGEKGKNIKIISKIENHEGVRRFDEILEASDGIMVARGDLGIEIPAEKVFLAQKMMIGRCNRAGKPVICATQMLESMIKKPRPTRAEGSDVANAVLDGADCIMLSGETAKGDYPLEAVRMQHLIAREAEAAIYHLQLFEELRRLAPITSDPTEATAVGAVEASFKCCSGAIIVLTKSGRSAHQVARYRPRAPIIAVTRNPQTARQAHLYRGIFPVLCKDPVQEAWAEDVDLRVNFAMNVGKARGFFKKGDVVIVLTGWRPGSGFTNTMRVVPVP
# Sequence of PKLNluc (P30613 1-543 isoform P30613-2): as the sequence (P30613 1-543 isoform P30613-2) above
smiles,measurement,setting,value
"CN(C)c1ccc(S(=O)(=O)c2ccc3c(=O)n(Cc4cc[nH]n4)ncc3c2)c2nonc12 [Compound IV, 2-((1H-Pyrazol-3-yl)methyl)-6-((7-(dimethylamino)benzo[c][1,2,5]oxadiazol-4-yl)sulfonyl)phthalazin-1(2H)-one]",BRET assay window,PKLNluc,39 mBU
same,in-gel fluorescence labeling of PKM2,"PKM2; IV 2.5 or 10 µM with FBP 10 µM, PKM2 tetrameric",no fluorescence
same,in-gel fluorescence labeling of PKM2,"PKM2; IV 2.5 or 10 µM, without FBP",no fluorescence was detected
same,EC50,"PKL; recombinant PKL 10 nM, 15 min pre-incubation, PEP 0.1 mM, ADP 0.2 mM",13 nM
same,PKL E max,"PKL; recombinant PKL, above 100% activation, below 100% inhibition",169 % vehicle
